Tested on: fibroblasts
Test: Oxygen consumption rate (XF24 extracellular flux analyzer) in fibroblasts
Format: cell-based
Conditions: 5 nM to 500 nM; within thirty minutes of treatment; compared to 10 μM unmodified creatine
Procedure: In this assay, an XF24 extracellular flux analyzer (Seahorse Bioscience, North Billerica, Mass.) was used to measure mitochondrial oxygen consumption in intact cells. The XF24 analyzer creates a transient 7 μL chamber in specialized microplates that allows determination of oxygen and proton concentrations in real time through the measurement of oxygen sensitive dyes by the XF24 instrument. 24 hours prior to OCR measurement, fibroblasts were seeded into 20 wells of the 24 well tissue culture plate while 1 ml of XF Calibrant solution (Seahorse Bioscience, North Billerica, Mass.) was added to each well of a 24 well dual-analyte sensor cartridge (Seahorse Bioscience, North Billerica, Mass.). The sensor cartridge repositioned on the 24 well calibration plate, and the plate was incubated overnight at 37° C. without additional CO2.
On the day of the experiment, the injection ports on the sensor cartridge were loaded with compound A-1 or creatine as indicated at 10× concentrations and placed into the XF24 Flux Analyzer for automated calibration. […]
The results of the assay for Mitocreatine at 5 nM, 10 nM, 50 nM, and 500 nM concentrations are shown in FIG. 2 as a percent change from the untreated control. For comparison, the results obtained Mitocreatine were compared with the percent increase in oxygen consumption rate measured upon addition of 10 μM creatine.

For `CN(CC(=O)NCCC[P+](c1ccccc1)(c1ccccc1)c1ccccc1)C(=N)N.Cl.[Cl-]` [Mitocreatine, N^2-[ammonio(imino)methyl]-N^2-methyl-N-[3-(triphenylphosphonio)propyl] glycinamide dichloride], the oxygen consumption rate was “significant increase in oxygen consumption rate”.

From patent publication US9707244B2, “Compositions and methods for treating conditions that affect epidermis” (Gencia Corporation, priority 2013, dated 2017)
